PubChem BioAssay AID1963826 (Molecular Pharmacology Branch, DTP, NCI, 2024)

System: 926638-142-R-J1-PDC complex spheroid viability
Test: Anticancer human tumor 926638-142-R-J1-PDC patient-derived endometrial carcinoma cell line growth inhibition [POLQ]
Conditions: for IC50: curve of first compound; for viability, T/C: stronger effect = lower value
Outline: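 Complex spheroid viability model combining PDC tumour cells with endothelial (HUVEC) and MSC stromal cells. Novobiocin, ART-558 or RP6685 were tested singly and in combination with standard and investigational anticancer drugs. Each was titrated in half-log steps from near clinical Cmax, or from 10 microM where Cmax was unknown.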

[1] = second compound 0.0316 µM, first compound 0.0316 µM
[2] = second compound 0.0316 µM, first compound 0.1 µM
[3] = second compound 0.0316 µM, first compound 0.316 µM
[4] = second compound 0.0316 µM, first compound 1 µM
[5] = second compound 0.0316 µM, first compound 3.16 µM
[6] = second compound 0.0316 µM, first compound 10 µM
[7] = second compound 0.1 µM, first compound 0.0316 µM
[8] = second compound 0.1 µM, first compound 0.1 µM
[9] = second compound 0.1 µM, first compound 0.316 µM
[10] = second compound 0.1 µM, first compound 1 µM
[11] = second compound 0.1 µM, first compound 3.16 µM
[12] = second compound 0.1 µM, first compound 10 µM
[13] = second compound 0.316 µM, first compound 0.0316 µM
[14] = second compound 0.316 µM, first compound 0.1 µM
[15] = second compound 0.316 µM, first compound 0.316 µM
[16] = second compound 0.316 µM, first compound 1 µM
[17] = second compound 0.316 µM, first compound 3.16 µM
[18] = second compound 0.316 µM, first compound 10 µM
[19] = second compound 1 µM, first compound 0.0316 µM
[20] = second compound 1 µM, first compound 0.1 µM
[21] = second compound 1 µM, first compound 0.316 µM
[22] = second compound 1 µM, first compound 1 µM
[23] = second compound 1 µM, first compound 3.16 µM
[24] = second compound 1 µM, first compound 10 µM
[25] = second compound 3.16 µM, first compound 0.0316 µM
[26] = second compound 3.16 µM, first compound 0.1 µM
[27] = second compound 3.16 µM, first compound 0.316 µM
[28] = second compound 3.16 µM, first compound 1 µM
[29] = second compound 3.16 µM, first compound 3.16 µM
[30] = second compound 3.16 µM, first compound 10 µM
[31] = second compound 10 µM, first compound 0.0316 µM
[32] = second compound 10 µM, first compound 0.1 µM
[33] = second compound 10 µM, first compound 0.316 µM
[34] = second compound 10 µM, first compound 1 µM
[35] = second compound 10 µM, first compound 3.16 µM
[36] = second compound 10 µM, first compound 10 µM
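Note: spheroids exposed to drugs for one week before readout.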
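Throughout, for viability, T/C: percent viability relative to DMSO vehicle control wells set as 100%.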

SMILES: Nc1ccn(C2OC(CO)C(O)C2(F)F)c(=O)n1 (stereo not drawn) + Nc1ccc(C#CCN(C(=O)Cc2ncc(C(F)(F)F)cc2C(F)(F)F)c2ccc(F)cc2)nn1
- IC50 (second compound 0.0316 µM): 1.06 µM
- IC50 (second compound 0.1 µM): 0.682 µM
- IC50 (second compound 0.316 µM): 0.948 µM
- IC50 (second compound 1 µM): 0.701 µM
- IC50 (second compound 3.16 µM): 0.449 µM
- IC50 (second compound 10 µM): 2.4 µM
- viability, T/C [1]: 76.5%
- viability, T/C [2]: 63.9%
- viability, T/C [3]: 57%
- viability, T/C [4]: 52.7%
- viability, T/C [5]: 43.9%
- viability, T/C [6]: 29.6%
- viability, T/C [7]: 96.8%
- viability, T/C [8]: 82.5%
- viability, T/C [9]: 49.4%
- viability, T/C [10]: 44.6%
- viability, T/C [11]: 49.9%
- viability, T/C [12]: 25.6%
- viability, T/C [13]: 91.2%
- viability, T/C [14]: 72%
- viability, T/C [15]: 61.8%
- viability, T/C [16]: 49.2%
- viability, T/C [17]: 40.8%
- viability, T/C [18]: 27%
- viability, T/C [19]: 81.8%
- viability, T/C [20]: 65.7%
- viability, T/C [21]: 51.1%
- viability, T/C [22]: 47.5%
- viability, T/C [23]: 49.6%
- viability, T/C [24]: 28.9%
- viability, T/C [25]: 80%
- viability, T/C [26]: 67.5%
- viability, T/C [27]: 49.9%
- viability, T/C [28]: 42.9%
- viability, T/C [29]: 44.6%
- viability, T/C [30]: 33.3%
- viability, T/C [31]: 79.6%
- viability, T/C [32]: 73.1%
- viability, T/C [33]: 66.3%
- viability, T/C [34]: 48%
- viability, T/C [35]: 55.4%
- viability, T/C [36]: 38.9%

SMILES: O=c1[nH]cc(F)c(=O)[nH]1 + Cc1cccc(N(C)C(=O)C2C(O)CCN2c2nc(C)cc(C(F)(F)F)c2C#N)c1
- IC50 (second compound 0.0316 µM): > 10 µM
- IC50 (second compound 0.1 µM): > 10 µM
- IC50 (second compound 0.316 µM): > 10 µM
- IC50 (second compound 1 µM): > 10 µM
- IC50 (second compound 3.16 µM): > 10 µM
- IC50 (second compound 10 µM): > 10 µM
- viability, T/C [1]: 106%
- viability, T/C [2]: 98.6%
- viability, T/C [3]: 96.6%
- viability, T/C [4]: 104%
- viability, T/C [5]: 89.5%
- viability, T/C [6]: 82.2%
- viability, T/C [7]: 111%
- viability, T/C [8]: 91.2%
- viability, T/C [9]: 110%
- viability, T/C [10]: 82.1%
- viability, T/C [11]: 106%
- viability, T/C [12]: 71.4%
- viability, T/C [13]: 88.3%
- viability, T/C [14]: 80.2%
- viability, T/C [15]: 98.8%
- viability, T/C [16]: 83.5%
- viability, T/C [17]: 88.1%
- viability, T/C [18]: 75%
- viability, T/C [19]: 81.2%
- viability, T/C [20]: 104%
- viability, T/C [21]: 88.4%
- viability, T/C [22]: 97.5%
- viability, T/C [23]: 81.4%
- viability, T/C [24]: 81.5%
- viability, T/C [25]: 98.7%
- viability, T/C [26]: 89.4%
- viability, T/C [27]: 82.7%
- viability, T/C [28]: 90.9%
- viability, T/C [29]: 91%
- viability, T/C [30]: 92.8%
- viability, T/C [31]: 81.5%
- viability, T/C [32]: 98.4%
- viability, T/C [33]: 90%
- viability, T/C [34]: 95.2%
- viability, T/C [35]: 107%
- viability, T/C [36]: 80.8%

SMILES: CNCc1ccc(-c2[nH]c3cc(F)cc4c3c2CCNC4=O)cc1 + COC1C(OC(N)=O)C(O)C(Oc2ccc3c(O)c(NC(=O)c4ccc(O)c(CC=C(C)C)c4)c(=O)oc3c2C)OC1(C)C
- IC50 (second compound 0.0316 µM): > 10 µM
- IC50 (second compound 0.1 µM): > 10 µM
- IC50 (second compound 0.316 µM): > 10 µM
- IC50 (second compound 1 µM): > 10 µM
- IC50 (second compound 3.16 µM): > 10 µM
- IC50 (second compound 10 µM): > 10 µM
- viability, T/C [1]: 92%
- viability, T/C [2]: 82.2%
- viability, T/C [3]: 96%
- viability, T/C [4]: 81%
- viability, T/C [5]: 87.7%
- viability, T/C [6]: 76.7%
- viability, T/C [7]: 78.9%
- viability, T/C [8]: 99.9%
- viability, T/C [9]: 77.2%
- viability, T/C [10]: 89.2%
- viability, T/C [11]: 80.1%
- viability, T/C [12]: 81.2%
- viability, T/C [13]: 90.5%
- viability, T/C [14]: 81.1%
- viability, T/C [15]: 84.9%
- viability, T/C [16]: 90.5%
- viability, T/C [17]: 101%
- viability, T/C [18]: 84.6%
- viability, T/C [19]: 77.3%
- viability, T/C [20]: 73.9%
- viability, T/C [21]: 73.8%
- viability, T/C [22]: 89.9%
- viability, T/C [23]: 94.8%
- viability, T/C [24]: 69%
- viability, T/C [25]: 82.3%
- viability, T/C [26]: 93.9%
- viability, T/C [27]: 90.7%
- viability, T/C [28]: 71.2%
- viability, T/C [29]: 88.2%
- viability, T/C [30]: 85.2%
- viability, T/C [31]: 89.8%
- viability, T/C [32]: 79.9%
- viability, T/C [33]: 83.8%
- viability, T/C [34]: 70.5%
- viability, T/C [35]: 84.4%
- viability, T/C [36]: 83%

SMILES: O=C(c1cc(Cc2n[nH]c(=O)c3ccccc23)ccc1F)N1CCN(C(=O)C2CC2)CC1 + COC1C(OC(N)=O)C(O)C(Oc2ccc3c(O)c(NC(=O)c4ccc(O)c(CC=C(C)C)c4)c(=O)oc3c2C)OC1(C)C
- IC50 (second compound 0.0316 µM): > 10 µM
- IC50 (second compound 0.1 µM): > 10 µM
- IC50 (second compound 0.316 µM): > 10 µM
- IC50 (second compound 1 µM): > 10 µM
- IC50 (second compound 3.16 µM): > 10 µM
- IC50 (second compound 10 µM): > 10 µM
- viability, T/C [1]: 86%
- viability, T/C [2]: 115%
- viability, T/C [3]: 95.5%
- viability, T/C [4]: 115%
- viability, T/C [5]: 84.3%
- viability, T/C [6]: 89.7%
- viability, T/C [7]: 92.3%
- viability, T/C [8]: 95.5%
- viability, T/C [9]: 108%
- viability, T/C [10]: 95.6%
- viability, T/C [11]: 89.3%
- viability, T/C [12]: 76.8%
- viability, T/C [13]: 92.3%
- viability, T/C [14]: 95.5%
- viability, T/C [15]: 101%
- viability, T/C [16]: 98.1%
- viability, T/C [17]: 80.3%
- viability, T/C [18]: 80.1%
- viability, T/C [19]: 117%
- viability, T/C [20]: 91.1%
- viability, T/C [21]: 110%
- viability, T/C [22]: 97.5%
- viability, T/C [23]: 80.7%
- viability, T/C [24]: 89.3%
- viability, T/C [25]: 98.2%
- viability, T/C [26]: 102%
- viability, T/C [27]: 89.4%
- viability, T/C [28]: 111%
- viability, T/C [29]: 99.6%
- viability, T/C [30]: 85.7%
- viability, T/C [31]: 95.5%
- viability, T/C [32]: 89.3%
- viability, T/C [33]: 92.2%
- viability, T/C [34]: 116%
- viability, T/C [35]: 83.1%
- viability, T/C [36]: 96%
